# Key:
# [1] = test system: southern crabgrass; experiment: Test Example 4: herbicidal effect by soil treatment (Table 19, symbol F); assay type: in vivo, southern crabgrass (Digitaria ciliaris); conditions: amount of applied herbicide 320 g/ha
# Outline: (§1)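 In this soil treatment, the formulated compound reached the seeds only through the soil: seeds were buried about 1.5 cm deep in sterilized diluvial soil, then the diluted emulsion was sprayed over the surface. After three weeks at 25° C. to 30° C. in a greenhouse, effects were graded on criteria from an earlier test.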
# [2] = test system: lambsquarters; experiment: Test Example 4: herbicidal effect by soil treatment (Table 19, symbol O); assay type: in vivo, lambsquarters (Chenopodium album); conditions: amount of applied herbicide 320 g/ha
# Outline: as §1
# [3] = test system: oval-leafed pondweed; experiment: Test Example 1: herbicidal activity, application before weed generation under submerged conditions (Table 16, symbol C); assay type: in vivo, oval-leafed pondweed (Monochoria vaginalis)
# Outline: (§2)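 Submerged Wagner pots (alluvial soil, 4 cm water) sown with weed seeds and planted with 2.5-leaf rice seedlings; emulsifiable concentrate diluted in water applied to water surface on sowing day. Held in greenhouse at 25-30 °C; injury scored 0-5 by herbicidal rate after three weeks.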
# [4] = test system: wild oat; experiment: Test Example 5: herbicidal effect by foliage application, plastic box (Table 20, symbol I); assay type: in vivo, wild oat (Avena fatua); conditions: foliage application
# Outline: (§3)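 Plants were sown into sterilized diluvial soil under about 1.5 cm cover and kept in a greenhouse at 25° C. to 30° C. Fourteen days on, foliage received an even spray of the diluted emulsion. Herbicidal or crop effect was judged three weeks afterwards.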
# [5] = test system: green foxtail; experiment: Test Example 5: herbicidal effect by foliage application, plastic box (Table 20, symbol G); assay type: in vivo, green foxtail (Setaria viridis); conditions: foliage application
# Outline: as §3
# [6] = test system: redroot pigweed; experiment: Test Example 4: herbicidal effect by soil treatment (Table 19, symbol N); assay type: in vivo, redroot pigweed (Amaranthus retroflexus); conditions: amount of applied herbicide 320 g/ha
# Outline: as §1
# [7] = test system: barnyard grass; experiment: Test Example 4: herbicidal effect by soil treatment (Table 19, symbol H); assay type: in vivo, barnyard grass (Echinochloa crus-galli); conditions: amount of applied herbicide 320 g/ha
# Outline: as §1
# [8] = test system: windgrass; experiment: Test Example 4: herbicidal effect by soil treatment (Table 19, symbol L); assay type: in vivo, windgrass (Apera spica-venti); conditions: amount of applied herbicide 320 g/ha
# Outline: as §1
# [9] = test system: blackgrass; experiment: Test Example 5: herbicidal effect by foliage application, plastic box (Table 20, symbol J); assay type: in vivo, blackgrass (Alopecurus myosuroides); conditions: foliage application
# Outline: as §3
# [10] = test system: chickweed; experiment: Test Example 4: herbicidal effect by soil treatment (Table 19, symbol P); assay type: in vivo, common chickweed (Stellaria media); conditions: amount of applied herbicide 320 g/ha
# Outline: as §1
# [11] = test system: barnyard grass; experiment: Test Example 5: herbicidal effect by foliage application, plastic box (Table 20, symbol H); assay type: in vivo, barnyard grass (Echinochloa crus-galli); conditions: foliage application
# Outline: as §3
# [12] = test system: windgrass; experiment: Test Example 5: herbicidal effect by foliage application, plastic box (Table 20, symbol L); assay type: in vivo, windgrass (Apera spica-venti); conditions: foliage application
# Outline: as §3
# [13] = test system: rice flat sedge; experiment: Test Example 3: herbicidal effect by foliage application, Wagner pot (Table 18, symbol E); assay type: in vivo, rice flat sedge (Cyperus iria); conditions: amount of applied herbicide 320 g/ha
# Outline: (§4)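 Plants were sown in alluvial soil held under 0.1–0.5 cm standing water and grown 14 days in a greenhouse at 25–30 °C. An emulsifiable formulation, water-diluted to the set dose, was then sprayed onto the foliage, and effects were scored three weeks later using previously defined criteria.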
# [14] = test system: barnyard grass; experiment: Test Example 3: herbicidal effect by foliage application, Wagner pot (Table 18, symbol H); assay type: in vivo, barnyard grass (Echinochloa crus-galli); conditions: amount of applied herbicide 320 g/ha
# Outline: as §4
# [15] = test system: wild oat; experiment: Test Example 4: herbicidal effect by soil treatment (Table 19, symbol I); assay type: in vivo, wild oat (Avena fatua); conditions: amount of applied herbicide 320 g/ha
# Outline: as §1
# [16] = test system: velvetleaf; experiment: Test Example 5: herbicidal effect by foliage application, plastic box (Table 20, symbol M); assay type: in vivo, velvetleaf (Abutilon theophrasti); conditions: foliage application
# Outline: as §3
# [17] = test system: persian speedwell; experiment: Test Example 5: herbicidal effect by foliage application, plastic box (Table 20, symbol R); assay type: in vivo, Persian speedwell (Veronica persica); conditions: foliage application
# Outline: as §3
# [18] = test system: Chinese sprangletop; experiment: Test Example 3: herbicidal effect by foliage application, Wagner pot (Table 18, symbol D); assay type: in vivo, chinese sprangletop (Leptochloa chinensis); conditions: amount of applied herbicide 320 g/ha
# Outline: as §4
# [19] = test system: late watergrass; experiment: Test Example 1: herbicidal activity, application before weed generation under submerged conditions (Table 16, symbol A); assay type: in vivo, late watergrass (Echinochloa oryzicola)
# Outline: as §2
# [20] = test system: redroot pigweed; experiment: Test Example 5: herbicidal effect by foliage application, plastic box (Table 20, symbol N); assay type: in vivo, redroot pigweed (Amaranthus retroflexus); conditions: foliage application
# Outline: as §3
# [21] = test system: velvetleaf; experiment: Test Example 4: herbicidal effect by soil treatment (Table 19, symbol M); assay type: in vivo, velvetleaf (Abutilon theophrasti); conditions: amount of applied herbicide 320 g/ha
# Outline: as §1
# [22] = test system: southern crabgrass; experiment: Test Example 5: herbicidal effect by foliage application, plastic box (Table 20, symbol F); assay type: in vivo, southern crabgrass (Digitaria ciliaris); conditions: foliage application
# Outline: as §3
# [23] = test system: Japanese bulrush; experiment: Test Example 1: herbicidal activity, application before weed generation under submerged conditions (Table 16, symbol B); assay type: in vivo, Japanese bulrush (Schoenoplectus juncoides)
# Outline: as §2
# [24] = test system: false cleavers; experiment: Test Example 5: herbicidal effect by foliage application, plastic box (Table 20, symbol Q); assay type: in vivo, false cleavers (Galium spurium); conditions: foliage application
# Outline: as §3
# [25] = test system: green foxtail; experiment: Test Example 4: herbicidal effect by soil treatment (Table 19, symbol G); assay type: in vivo, green foxtail (Setaria viridis); conditions: amount of applied herbicide 320 g/ha
# Outline: as §1
# [26] = test system: persian speedwell; experiment: Test Example 4: herbicidal effect by soil treatment (Table 19, symbol R); assay type: in vivo, Persian speedwell (Veronica persica); conditions: amount of applied herbicide 320 g/ha
# Outline: as §1
# [27] = test system: chickweed; experiment: Test Example 5: herbicidal effect by foliage application, plastic box (Table 20, symbol P); assay type: in vivo, common chickweed (Stellaria media); conditions: foliage application
# Outline: as §3
# [28] = test system: blackgrass; experiment: Test Example 4: herbicidal effect by soil treatment (Table 19, symbol J); assay type: in vivo, blackgrass (Alopecurus myosuroides); conditions: amount of applied herbicide 320 g/ha
# Outline: as §1
# [29] = test system: Italian ryegrass; experiment: Test Example 4: herbicidal effect by soil treatment (Table 19, symbol K); assay type: in vivo, Italian ryegrass (Lolium multiflorum); conditions: amount of applied herbicide 320 g/ha
# Outline: as §1
# [30] = test system: lambsquarters; experiment: Test Example 5: herbicidal effect by foliage application, plastic box (Table 20, symbol O); assay type: in vivo, lambsquarters (Chenopodium album); conditions: foliage application
# Outline: as §3
# [31] = test system: Italian ryegrass; experiment: Test Example 5: herbicidal effect by foliage application, plastic box (Table 20, symbol K); assay type: in vivo, Italian ryegrass (Lolium multiflorum); conditions: foliage application
# Outline: as §3
# [32] = amount of applied herbicide 320 g/ha
# [33] = 320 g/ha, three weeks after application
# [34] = AAH 320 g/ha, evaluated three weeks after application
smiles,measurement,setting,value
Cc1nn(Cc2ccccc2)c(=O)c(-c2c(-c3ccc(F)cc3)sc3ccc(F)cc23)c1O [2-432],"herbicidal effect, F: southern crabgrass",[1],0 (Herbicidal rate of 5% or less (almost no effect))
same,"herbicidal effect, O: lambsquarters",[2],2 (Herbicidal rate of 20% or more and less than 40%)
same,"Herbicidal effect, C: oval-leafed pondweed",[3]; [32],0 (Herbicidal rate of 5% or less (almost no effect))
same,"I: wild oat, herbicidal effect grade",[4]; [33],0 (Herbicidal rate of 5% or less (almost no effect))
same,"G: green foxtail, herbicidal effect grade",[5]; [33],0 (Herbicidal rate of 5% or less (almost no effect))
same,"herbicidal effect, N: redroot pigweed",[6],3 (Herbicidal rate of 40% or more and less than 70%)
same,"herbicidal effect, H: barnyard grass",[7],0 (Herbicidal rate of 5% or less (almost no effect))
same,"herbicidal effect, L: windgrass",[8],0 (Herbicidal rate of 5% or less (almost no effect))
same,"J: blackgrass, herbicidal effect grade",[9]; [33],0 (Herbicidal rate of 5% or less (almost no effect))
same,"herbicidal effect, P: chickweed",[10],0 (Herbicidal rate of 5% or less (almost no effect))
same,"H: barnyard grass, herbicidal effect grade",[11]; [33],1 (Herbicidal rate of 5% or more and less than 20%)
same,"L: windgrass, herbicidal effect grade",[12]; [33],0 (Herbicidal rate of 5% or less (almost no effect))
same,herbicidal effect on E: rice flat sedge,[13],2 (Herbicidal rate of 20% or more and less than 40%)
same,herbicidal effect on H: barnyard grass,[14],3 (Herbicidal rate of 40% or more and less than 70%)
same,"herbicidal effect, I: wild oat",[15],0 (Herbicidal rate of 5% or less (almost no effect))
same,"M: velvetleaf, herbicidal effect grade",[16]; [33],1 (Herbicidal rate of 5% or more and less than 20%)
same,"R: persian speedwell, herbicidal effect grade",[17]; [33],5 (Herbicidal rate of 90% or more (almost completely withered))
same,herbicidal effect on D: Chinese sprangletop,[18],0 (Herbicidal rate of 5% or less (almost no effect))
same,"Herbicidal effect, A: late watergrass",[19]; [32],2 (Herbicidal rate of 20% or more and less than 40%)
same,"N: redroot pigweed, herbicidal effect grade",[20]; [33],5 (Herbicidal rate of 90% or more (almost completely withered))
same,"herbicidal effect, M: velvetleaf",[21],0 (Herbicidal rate of 5% or less (almost no effect))
same,"F: southern crabgrass, herbicidal effect grade",[22]; [33],3 (Herbicidal rate of 40% or more and less than 70%)
same,"Herbicidal effect, B: Japanese bulrush",[23]; [32],0 (Herbicidal rate of 5% or less (almost no effect))
same,"Q: false cleavers, herbicidal effect grade",[24]; [33],3 (Herbicidal rate of 40% or more and less than 70%)
same,"herbicidal effect, G: green foxtail",[25],1 (Herbicidal rate of 5% or more and less than 20%)
same,"herbicidal effect, R: persian speedwell",[26],0 (Herbicidal rate of 5% or less (almost no effect))
same,"P: chickweed, herbicidal effect grade",[27]; [33],5 (Herbicidal rate of 90% or more (almost completely withered))
same,"herbicidal effect, J: blackgrass",[28],0 (Herbicidal rate of 5% or less (almost no effect))
same,"herbicidal effect, K: Italian ryegrass",[29],0 (Herbicidal rate of 5% or less (almost no effect))
same,"O: lambsquarters, herbicidal effect grade",[30]; [33],2 (Herbicidal rate of 20% or more and less than 40%)
same,"K: Italian ryegrass, herbicidal effect grade",[31]; [33],0 (Herbicidal rate of 5% or less (almost no effect))
Cc1ccc(S(=O)(=O)Oc2c(C)nn(C)c(=O)c2-c2c(-c3ccc(OC(F)F)cc3)sc3ccc(F)cc23)cc1 [2-312],herbicidal effect on F: southern crabgrass,[1],0 (Herbicidal rate of 5% or less (almost no effect))
same,herbicidal effect on O: lambsquarters,[2],4 (Herbicidal rate of 70% or more and less than 90%)
same,Herbicidal effect on C: oval-leafed pondweed (grade 0-5),[3]; 320 g/ha applied herbicide,0 (Herbicidal rate of 5% or less (almost no effect))
same,"I: wild oat, herbicidal effect (criteria 0-5)",[4]; [34],3 (Herbicidal rate of 40% or more and less than 70%)
same,"G: green foxtail, herbicidal effect (criteria 0-5)",[5]; [34],4 (Herbicidal rate of 70% or more and less than 90%)
same,herbicidal effect on N: redroot pigweed,[6],5 (Herbicidal rate of 90% or more (almost completely withered))
same,herbicidal effect on H: barnyard grass,[7],1 (Herbicidal rate of 5% or more and less than 20%)
same,herbicidal effect on L: windgrass,[8],0 (Herbicidal rate of 5% or less (almost no effect))
same,"J: blackgrass, herbicidal effect (criteria 0-5)",[9]; [34],4 (Herbicidal rate of 70% or more and less than 90%)
same,herbicidal effect on P: chickweed,[10],5 (Herbicidal rate of 90% or more (almost completely withered))
same,"H: barnyard grass, herbicidal effect (criteria 0-5)",[11]; [34],5 (Herbicidal rate of 90% or more (almost completely withered))
same,"L: windgrass, herbicidal effect (criteria 0-5)",[12]; [34],4 (Herbicidal rate of 70% or more and less than 90%)
same,herbicidal effect on E: rice flat sedge,[13],5 (Herbicidal rate of 90% or more (almost completely withered))
same,herbicidal effect on H: barnyard grass,[14],5 (Herbicidal rate of 90% or more (almost completely withered))
same,herbicidal effect on I: wild oat,[15],0 (Herbicidal rate of 5% or less (almost no effect))
same,"M: velvetleaf, herbicidal effect (criteria 0-5)",[16]; [34],5 (Herbicidal rate of 90% or more (almost completely withered))
same,"R: persian speedwell, herbicidal effect (criteria 0-5)",[17]; [34],5 (Herbicidal rate of 90% or more (almost completely withered))
same,herbicidal effect on D: Chinese sprangletop,[18],3 (Herbicidal rate of 40% or more and less than 70%)
same,Herbicidal effect on A: late watergrass (grade 0-5),[19]; 320 g/ha applied herbicide,2 (Herbicidal rate of 20% or more and less than 40%)
same,"N: redroot pigweed, herbicidal effect (criteria 0-5)",[20]; [34],5 (Herbicidal rate of 90% or more (almost completely withered))
same,herbicidal effect on M: velvetleaf,[21],3 (Herbicidal rate of 40% or more and less than 70%)
same,"F: southern crabgrass, herbicidal effect (criteria 0-5)",[22]; [34],1 (Herbicidal rate of 5% or more and less than 20%)
same,Herbicidal effect on B: Japanese bulrush (grade 0-5),[23]; 320 g/ha applied herbicide,3 (Herbicidal rate of 40% or more and less than 70%)
same,"Q: false cleavers, herbicidal effect (criteria 0-5)",[24]; [34],5 (Herbicidal rate of 90% or more (almost completely withered))
same,herbicidal effect on G: green foxtail,[25],0 (Herbicidal rate of 5% or less (almost no effect))
same,herbicidal effect on R: persian speedwell,[26],5 (Herbicidal rate of 90% or more (almost completely withered))
same,"P: chickweed, herbicidal effect (criteria 0-5)",[27]; [34],5 (Herbicidal rate of 90% or more (almost completely withered))
same,herbicidal effect on J: blackgrass,[28],3 (Herbicidal rate of 40% or more and less than 70%)
same,herbicidal effect on K: Italian ryegrass,[29],5 (Herbicidal rate of 90% or more (almost completely withered))
same,"O: lambsquarters, herbicidal effect (criteria 0-5)",[30]; [34],5 (Herbicidal rate of 90% or more (almost completely withered))
same,"K: Italian ryegrass, herbicidal effect (criteria 0-5)",[31]; [34],5 (Herbicidal rate of 90% or more (almost completely withered))
